According to article PMC6128854 (Scientific Reports, 2018):

Test system: high voltage-activated (HVA) calcium channel currents in rat DRG neurons
Assay type: cell-based

For ω-agatoxin, the “further inhibition of the residual Ba2+ currents” value was 20%.
